{"source": "paper PMC7172207", "about": "(Bioorganic & Medicinal Chemistry Letters, 2019)", "key": {"DENV2 [1]": {"system": "DENV2", "experiment": "Immunofluorescence assay of DENV2 infectivity", "assay_type": "cell-based, Dengue virus type 2 (strain 16681)", "settings": "for rate of NS4B-positive cells: Vero E6, DENV2-infected, 96 h"}, "DENV2 [2]": {"system": "DENV2", "experiment": "Anti-DENV2 activity in human lung epithelial A549 cells", "assay_type": "cell-based, Dengue virus type 2", "settings": "DENV2 MOI 0.01, 120 h"}}}
{"smiles": "COC(=O)[C@H](CCSC)NC(=O)[C@H]1O[C@@H](O[C@H]2[C@@H](O[C@H]3CC[C@]4(C)[C@H]5C(=O)C=C6[C@@H]7C[C@@](C)(C(=O)N[C@@H](CCSC)C(=O)OC)CC[C@]7(C)CC[C@@]6(C)[C@]5(C)CC[C@H]4C3(C)C)O[C@H](C(=O)N[C@@H](CCSC)C(=O)OC)[C@@H](O)[C@@H]2O)[C@H](O)[C@@H](O)[C@@H]1O", "note": "[Compound 6]", "values": [{"measurement": "TI (CC50/IC50)", "setting": "DENV2 [1]; Vero E6 cells", "value": "˃22.2"}]}
{"smiles": "CC1(C)[C@@H](O[C@H]2O[C@H](C(=O)O)[C@@H](O)[C@H](O)[C@H]2O[C@@H]2O[C@H](C(=O)O)[C@@H](O)[C@H](O)[C@H]2O)CC[C@]2(C)[C@H]3C(=O)C=C4[C@@H]5C[C@@](C)(C(=O)O)CC[C@]5(C)CC[C@@]4(C)[C@]3(C)CC[C@@H]12", "note": "[Compound 1, Glycyrrhizic acid, reference compound]", "values": [{"measurement": "TI (CC50/IC50)", "setting": "DENV2 [1]; Vero E6 cells", "value": "˃12.3"}]}
{"smiles": "CC1(C)[C@@H](O[C@H]2O[C@H](C(=O)N[C@@H](Cc3ccccc3)C(=O)O)[C@@H](O)[C@H](O)[C@H]2O[C@@H]2O[C@H](C(=O)N[C@@H](Cc3ccccc3)C(=O)O)[C@@H](O)[C@H](O)[C@H]2O)CC[C@]2(C)[C@H]3C(=O)C=C4[C@@H]5C[C@@](C)(C(=O)N[C@@H](Cc6ccccc6)C(=O)O)CC[C@]5(C)CC[C@@]4(C)[C@]3(C)CC[C@@H]12", "note": "[Compound 14]", "values": [{"measurement": "anti-DENV2 activity (in words)", "setting": "DENV2 [1]; Vero E6 cells, CPE test and NS4B-positive cells", "value": "dropped the anti-DENV activity"}]}
{"smiles": "CC[C@H](C)[C@H](NC(=O)[C@H]1O[C@@H](O[C@H]2[C@@H](O[C@H]3CC[C@]4(C)[C@H]5C(=O)C=C6[C@@H]7C[C@@](C)(C(=O)N[C@H](C(=O)O)[C@@H](C)CC)CC[C@]7(C)CC[C@@]6(C)[C@]5(C)CC[C@H]4C3(C)C)O[C@H](C(=O)N[C@H](C(=O)O)[C@@H](C)CC)[C@@H](O)[C@@H]2O)[C@H](O)[C@@H](O)[C@@H]1O)C(=O)O", "note": "[Compound 13]", "values": [{"measurement": "rate of NS4B-positive cells", "setting": "DENV2 [1]; 0.1 μM compound", "value": 37.2, "unit": "%"}, {"measurement": "rate of NS4B-positive cells", "setting": "DENV2 [1]; 1 μM compound", "value": 29.4, "unit": "%"}, {"measurement": "rate of NS4B-positive cells", "setting": "DENV2 [1]; 10 μM compound", "value": 1.6, "unit": "%"}, {"measurement": "anti-DENV2 activity in A549 cells (in words)", "setting": "DENV2 [2]", "value": "potent anti-DENV2 activity"}]}
